Each molecule was assayed against T1, Avi-KRAS G12D (1-169) GppNHp/RAF1 RBD-3xFLAG (52-151) (Homo sapiens, UniProt P01116, G12D) (assay: Raf1-KRAS G12D-GppNHP disruption HTRF assay (Biological Example 1)). Conditions: KRAS G12D, GppNHp-loaded; class symbols.
T1 construct: Avi-KRAS G12D (1-169)
Type: binding
How it was run: (§1)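 Measured with a KRAS/RAF1 HTRF assay at pH 7.5 in 10% DMSO, with two 1 h room-temperature incubations with shaking.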

T1 sequence (P01116 1-169 isoform P01116-2 G12D): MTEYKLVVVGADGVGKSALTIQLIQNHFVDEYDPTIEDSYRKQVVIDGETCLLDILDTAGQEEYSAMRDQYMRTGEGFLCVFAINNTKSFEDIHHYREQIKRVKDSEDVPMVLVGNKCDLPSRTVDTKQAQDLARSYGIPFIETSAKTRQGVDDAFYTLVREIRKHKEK

First: CCN(c1nc(OC[C@]23C[C@@H](F)CN2CC2(CC2)C3)nc2c(F)c(-c3ccc(F)c4sc(N)c(C#N)c34)c(C(F)(F)F)cc12)[C@H]1CCN(C(=O)C(C)C)C1 [Compound 566]
Second: CCN(CC)C(=O)N1CCC(N(CC)c2nc(OCC34CCCN3CC(F)C4)nc3c(F)c(-c4ccc(F)c5sc(N)c(C#N)c45)c(C(F)(F)F)cc23)C1 (stereo not drawn) [Compound 572]
The IC50 of the first is higher: 0.1 to 1 µM for the first, under 0.1 µM for the second. The second is the more potent here.

Compared with [2H]C1([2H])CN2C[C@H](F)C[C@]2(COc2nc(N3C[C@H]4C[C@@H]3CO4)c3cc(C(F)(F)F)c(-c4ccc(F)c5sc(N)c(C#N)c45)c(F)c3n2)C1 [Compound 567], CC1c2cc(C(=O)N(C)C)nn2CCN1c1nc(OCC23CCCN2CC(F)C3)nc2c(F)c(-c3ccc(F)c4sc(N)c(C#N)c34)c(C(F)(F)F)cc12 (stereo not drawn) [Compound 568] is higher in IC50: 0.1 to 1 µM for the first, 1 to 10 µM for the second.

CCN(c1nc(OC[C@H]2C[C@@H](OC)CN2C)nc2c(F)c(-c3ccc(F)c4sc(N)c(C#N)c34)c(C(F)(F)F)cc12)[C@H]1CCN(C(=O)C(C)C)C1 [Compound 592] and C[C@@H]1[C@H](N(C)c2nc(OC[C@]34C[C@@H](F)CN3CC3(CC3)C4)nc3c(F)c(-c4ccc(F)c5sc(N)c(C#N)c45)c(Cl)cc23)CCN1C(=O)C1CC1 [Compound 593] fall in the same range of IC50: 1 to 10 µM for the first, 1 to 10 µM for the second.

What follows are molecules tested against T2, Avi-KRAS G12V (1-169) GppNHp/RAF1 RBD-3xFLAG (52-151) (Homo sapiens, UniProt P01116, G12V) (assay: Raf1-KRAS G12V-GppNHP disruption HTRF assay (Biological Example 1)). Conditions: KRAS G12V, GppNHp-loaded; class symbols.
T2 construct: Avi-KRAS G12V (1-169)
Type: binding
How it was run: as §1

T2 sequence (P01116 1-169 isoform P01116-2 G12V): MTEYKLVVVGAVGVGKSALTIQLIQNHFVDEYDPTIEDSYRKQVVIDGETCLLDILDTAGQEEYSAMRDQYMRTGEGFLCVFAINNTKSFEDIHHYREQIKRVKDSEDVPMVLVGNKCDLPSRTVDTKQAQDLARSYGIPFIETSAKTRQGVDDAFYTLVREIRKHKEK

CCN(c1nc(OC[C@]23C[C@@H](F)CN2CC2(CC2)C3)nc2c(F)c(-c3ccc(F)c4sc(N)c(C#N)c34)c(C(F)(F)F)cc12)[C@H]1CCN(C(=O)C(C)C)C1 [Compound 566] and CCN(CC)C(=O)N1CCC(N(CC)c2nc(OCC34CCCN3CC(F)C4)nc3c(F)c(-c4ccc(F)c5sc(N)c(C#N)c45)c(C(F)(F)F)cc23)C1 (stereo not drawn) [Compound 572] fall in the same range of IC50: 0.1 to 1 µM for the first, 0.1 to 1 µM for the second.

[2H]C1([2H])CN2C[C@H](F)C[C@]2(COc2nc(N3C[C@H]4C[C@@H]3CO4)c3cc(C(F)(F)F)c(-c4ccc(F)c5sc(N)c(C#N)c45)c(F)c3n2)C1 [Compound 567] and CC1c2cc(C(=O)N(C)C)nn2CCN1c1nc(OCC23CCCN2CC(F)C3)nc2c(F)c(-c3ccc(F)c4sc(N)c(C#N)c34)c(C(F)(F)F)cc12 (stereo not drawn) [Compound 568] fall in the same range of IC50: 0.1 to 1 µM for the first, 0.1 to 1 µM for the second.

CCN(c1nc(OC[C@H]2C[C@@H](OC)CN2C)nc2c(F)c(-c3ccc(F)c4sc(N)c(C#N)c34)c(C(F)(F)F)cc12)[C@H]1CCN(C(=O)C(C)C)C1 [Compound 592] and C[C@@H]1[C@H](N(C)c2nc(OC[C@]34C[C@@H](F)CN3CC3(CC3)C4)nc3c(F)c(-c4ccc(F)c5sc(N)c(C#N)c45)c(Cl)cc23)CCN1C(=O)C1CC1 [Compound 593] fall in the same range of IC50: 1 to 10 µM for the first, 1 to 10 µM for the second.

These molecules were tested against T3, Avi-KRAS G12R (1-169) GppNHp/RAF1 RBD-3xFLAG (52-151) (Homo sapiens, UniProt P01116, G12R) (assay: Raf1-KRAS G12R-GppNHP disruption HTRF assay (Biological Example 1)). Conditions: KRAS G12R, GppNHp-loaded; class symbols.
T3 construct: Avi-KRAS G12R (1-169)
Type: binding
How it was run: as §1

T3 sequence (P01116 1-169 isoform P01116-2 G12R): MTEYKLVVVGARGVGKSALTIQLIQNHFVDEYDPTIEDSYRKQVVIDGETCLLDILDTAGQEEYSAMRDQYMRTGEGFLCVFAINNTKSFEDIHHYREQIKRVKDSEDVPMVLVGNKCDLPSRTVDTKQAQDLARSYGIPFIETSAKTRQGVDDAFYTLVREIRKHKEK

Compared with CCN(c1nc(OC[C@]23C[C@@H](F)CN2CC2(CC2)C3)nc2c(F)c(-c3ccc(F)c4sc(N)c(C#N)c34)c(C(F)(F)F)cc12)[C@H]1CCN(C(=O)C(C)C)C1 [Compound 566], CCN(CC)C(=O)N1CCC(N(CC)c2nc(OCC34CCCN3CC(F)C4)nc3c(F)c(-c4ccc(F)c5sc(N)c(C#N)c45)c(C(F)(F)F)cc23)C1 (stereo not drawn) [Compound 572] is lower in IC50: 0.1 to 1 µM for the first, under 0.1 µM for the second.

[2H]C1([2H])CN2C[C@H](F)C[C@]2(COc2nc(N3C[C@H]4C[C@@H]3CO4)c3cc(C(F)(F)F)c(-c4ccc(F)c5sc(N)c(C#N)c45)c(F)c3n2)C1 [Compound 567] and CC1c2cc(C(=O)N(C)C)nn2CCN1c1nc(OCC23CCCN2CC(F)C3)nc2c(F)c(-c3ccc(F)c4sc(N)c(C#N)c34)c(C(F)(F)F)cc12 (stereo not drawn) [Compound 568] fall in the same range of IC50: 0.1 to 1 µM for the first, 0.1 to 1 µM for the second.

CCN(c1nc(OC[C@H]2C[C@@H](OC)CN2C)nc2c(F)c(-c3ccc(F)c4sc(N)c(C#N)c34)c(C(F)(F)F)cc12)[C@H]1CCN(C(=O)C(C)C)C1 [Compound 592] and C[C@@H]1[C@H](N(C)c2nc(OC[C@]34C[C@@H](F)CN3CC3(CC3)C4)nc3c(F)c(-c4ccc(F)c5sc(N)c(C#N)c45)c(Cl)cc23)CCN1C(=O)C1CC1 [Compound 593] fall in the same range of IC50: 1 to 10 µM for the first, 1 to 10 µM for the second.

These molecules were tested on SW620 cells (KRAS G12V) (assay: Cell-based pERK HTRF assay in SW620 cell (Biological Example 4)). Conditions: Homo sapiens, SW-620, SW620 (KRAS G12V) cells, pERK HTRF; class symbols.
How it was run: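 SW620 cells were treated for 4 h with compound in a 9-point half-log series from 1 μM top (0.25% DMSO), then lysed. Phospho-ERK was detected by HTRF with d2 and Eu cryptate antibodies after 4–24 h at room temperature, read at 615 nm emission.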

CCN(c1nc(OC[C@]23C[C@@H](F)CN2CC2(CC2)C3)nc2c(F)c(-c3ccc(F)c4sc(N)c(C#N)c34)c(C(F)(F)F)cc12)[C@H]1CCN(C(=O)C(C)C)C1 [Compound 566] and CCN(CC)C(=O)N1CCC(N(CC)c2nc(OCC34CCCN3CC(F)C4)nc3c(F)c(-c4ccc(F)c5sc(N)c(C#N)c45)c(C(F)(F)F)cc23)C1 (stereo not drawn) [Compound 572] cannot be ordered by IC50: under 0.1 µM for the first, under 0.1 µM for the second.

[2H]C1([2H])CN2C[C@H](F)C[C@]2(COc2nc(N3C[C@H]4C[C@@H]3CO4)c3cc(C(F)(F)F)c(-c4ccc(F)c5sc(N)c(C#N)c45)c(F)c3n2)C1 [Compound 567] and CC1c2cc(C(=O)N(C)C)nn2CCN1c1nc(OCC23CCCN2CC(F)C3)nc2c(F)c(-c3ccc(F)c4sc(N)c(C#N)c34)c(C(F)(F)F)cc12 (stereo not drawn) [Compound 568] cannot be ordered by IC50: under 0.1 µM for the first, under 0.1 µM for the second.

CCN(c1nc(OC[C@H]2C[C@@H](OC)CN2C)nc2c(F)c(-c3ccc(F)c4sc(N)c(C#N)c34)c(C(F)(F)F)cc12)[C@H]1CCN(C(=O)C(C)C)C1 [Compound 592] and C[C@@H]1[C@H](N(C)c2nc(OC[C@]34C[C@@H](F)CN3CC3(CC3)C4)nc3c(F)c(-c4ccc(F)c5sc(N)c(C#N)c45)c(Cl)cc23)CCN1C(=O)C1CC1 [Compound 593] fall in the same range of IC50: 0.1 to 1 µM for the first, 0.1 to 1 µM for the second.

Each molecule was assayed against T4, Avi-KRAS WT (1-169) GppNHp/RAF1 RBD-3xFLAG (52-151) (Homo sapiens, UniProt P01116) (assay: Raf1-KRAS WT-GppNHP disruption HTRF assay (Biological Example 1)). Conditions: KRAS WT, GppNHp-loaded; class symbols.
T4 construct: Avi-KRAS WT (1-169)
Type: binding
How it was run: as §1

T4 sequence (P01116 1-169 isoform P01116-2): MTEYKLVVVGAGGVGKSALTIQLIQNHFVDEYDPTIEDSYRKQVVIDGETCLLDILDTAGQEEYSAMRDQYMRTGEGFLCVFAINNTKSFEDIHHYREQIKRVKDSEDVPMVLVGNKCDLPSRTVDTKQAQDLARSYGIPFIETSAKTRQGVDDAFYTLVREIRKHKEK

Compared with CCN(c1nc(OC[C@]23C[C@@H](F)CN2CC2(CC2)C3)nc2c(F)c(-c3ccc(F)c4sc(N)c(C#N)c34)c(C(F)(F)F)cc12)[C@H]1CCN(C(=O)C(C)C)C1 [Compound 566], CCN(CC)C(=O)N1CCC(N(CC)c2nc(OCC34CCCN3CC(F)C4)nc3c(F)c(-c4ccc(F)c5sc(N)c(C#N)c45)c(C(F)(F)F)cc23)C1 (stereo not drawn) [Compound 572] is lower in IC50: 0.1 to 1 µM for the first, under 0.1 µM for the second. The second is the more potent here.

First: [2H]C1([2H])CN2C[C@H](F)C[C@]2(COc2nc(N3C[C@H]4C[C@@H]3CO4)c3cc(C(F)(F)F)c(-c4ccc(F)c5sc(N)c(C#N)c45)c(F)c3n2)C1 [Compound 567]
Second: CC1c2cc(C(=O)N(C)C)nn2CCN1c1nc(OCC23CCCN2CC(F)C3)nc2c(F)c(-c3ccc(F)c4sc(N)c(C#N)c34)c(C(F)(F)F)cc12 (stereo not drawn) [Compound 568]
The IC50 of the first is lower: 0.1 to 1 µM for the first, 1 to 10 µM for the second. The first is the more potent here.

CCN(c1nc(OC[C@H]2C[C@@H](OC)CN2C)nc2c(F)c(-c3ccc(F)c4sc(N)c(C#N)c34)c(C(F)(F)F)cc12)[C@H]1CCN(C(=O)C(C)C)C1 [Compound 592] and C[C@@H]1[C@H](N(C)c2nc(OC[C@]34C[C@@H](F)CN3CC3(CC3)C4)nc3c(F)c(-c4ccc(F)c5sc(N)c(C#N)c45)c(Cl)cc23)CCN1C(=O)C1CC1 [Compound 593] fall in the same range of IC50: 1 to 10 µM for the first, 1 to 10 µM for the second.

What follows are molecules tested on GP2d cells (KRAS G12D) (assay: Cell-based pERK HTRF assay in GP2d cell (Biological Example 2)). Conditions: GP2d, GP2d (KRAS G12D) cells, pERK HTRF; class symbols.
How it was run: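 Cells grown in DMEM with 10% FBS were exposed to compound for 60 min at 0.25% DMSO, using a 9-point half-log series starting at 1 μM or 100 nM. Lysates were then mixed with d2 and Eu cryptate antibodies for 4–24 h at room temperature, and pERK was read by HTRF.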

CCN(c1nc(OC[C@]23C[C@@H](F)CN2CC2(CC2)C3)nc2c(F)c(-c3ccc(F)c4sc(N)c(C#N)c34)c(C(F)(F)F)cc12)[C@H]1CCN(C(=O)C(C)C)C1 [Compound 566] and CCN(CC)C(=O)N1CCC(N(CC)c2nc(OCC34CCCN3CC(F)C4)nc3c(F)c(-c4ccc(F)c5sc(N)c(C#N)c45)c(C(F)(F)F)cc23)C1 (stereo not drawn) [Compound 572] cannot be ordered by IC50: under 0.1 µM for the first, under 0.1 µM for the second.

[2H]C1([2H])CN2C[C@H](F)C[C@]2(COc2nc(N3C[C@H]4C[C@@H]3CO4)c3cc(C(F)(F)F)c(-c4ccc(F)c5sc(N)c(C#N)c45)c(F)c3n2)C1 [Compound 567] and CC1c2cc(C(=O)N(C)C)nn2CCN1c1nc(OCC23CCCN2CC(F)C3)nc2c(F)c(-c3ccc(F)c4sc(N)c(C#N)c34)c(C(F)(F)F)cc12 (stereo not drawn) [Compound 568] cannot be ordered by IC50: under 0.1 µM for the first, under 0.1 µM for the second.

First: CCN(c1nc(OC[C@H]2C[C@@H](OC)CN2C)nc2c(F)c(-c3ccc(F)c4sc(N)c(C#N)c34)c(C(F)(F)F)cc12)[C@H]1CCN(C(=O)C(C)C)C1 [Compound 592]
Second: C[C@@H]1[C@H](N(C)c2nc(OC[C@]34C[C@@H](F)CN3CC3(CC3)C4)nc3c(F)c(-c4ccc(F)c5sc(N)c(C#N)c45)c(Cl)cc23)CCN1C(=O)C1CC1 [Compound 593]
The IC50 of the first is lower: under 0.1 µM for the first, 0.1 to 1 µM for the second. The first is the more potent here.
